The kinase profiling compilation of Christmann-Franck et al. (2016)

Legend:
Experiment in all cases: radiometric filter-binding kinase assay, Kinase HotSpot
Settings in all cases: compound 0.5 µM; ATP 10 µM
PLK1 (human) = PLK1 (human) (UniProt P53350)
DYRK1B (human) = DYRK1B (human) (UniProt Q9Y463)
CAMK2G (human) = CAMK2G (human) (UniProt Q13555)
PRKCB1 (human) = PRKCB1 (human) (UniProt P05771)
SRMS (human) = SRMS (human) (UniProt Q9H3Y6)
CHEK2 (human) = CHEK2 (human) (UniProt O96017)
ADRBK1 (human) = ADRBK1 (human) (UniProt P25098)
FGFR4 (human) = FGFR4 (human) (UniProt P22455)
CSF1R (human) = CSF1R (human) (UniProt P07333)
CDK3 CCNE1 (human) = CDK3 CCNE1 (human) (UniProt Q00526+P24864)
ERBB4 (human) = ERBB4 (human) (UniProt Q15303)
NEK3 (human) = NEK3 (human) (UniProt P51956)
NUAK1 (human) = NUAK1 (human) (UniProt O60285)
NEK4 (human) = NEK4 (human) (UniProt P51957)
DYRK4 (human) = DYRK4 (human) (UniProt Q9NR20)
MAPK10 (human) = MAPK10 (human) (UniProt P53779)
TBK1 (human) = TBK1 (human) (UniProt Q9UHD2)
EPHA8 (human) = EPHA8 (human) (UniProt P29322)
[1] = test system: PRKCQ (human), Q04759 [P330L]
PDGFRA (human) = PDGFRA (human) (UniProt P16234)
CDK9 CCNK (human) = CDK9 CCNK (human) (UniProt O75909+P50750)
CDK2 CCNE1 (human) = CDK2 CCNE1 (human) (UniProt P24941+P24864)
MAP3K9 (human) = MAP3K9 (human) (UniProt P80192)
TTK (human) = TTK (human) (UniProt P33981)
GSK3B (human) = GSK3B (human) (UniProt P49841)
GRK7 (human) = GRK7 (human) (UniProt Q8WTQ7)
TGFBR1 (human) = TGFBR1 (human) (UniProt P36897)
NEK6 (human) = NEK6 (human) (UniProt Q9HC98)
MAP3K5 (human) = MAP3K5 (human) (UniProt Q99683)
PRKCZ (human) = PRKCZ (human) (UniProt Q05513)
ACVR1 (human) = ACVR1 (human) (UniProt Q04771)
PRKCA (human) = PRKCA (human) (UniProt P17252)
PHKG2 (human) = PHKG2 (human) (UniProt P15735)
WNK3 (human) = WNK3 (human) (UniProt Q9BYP7)
LRRK2 (human) = LRRK2 (human) (UniProt Q5S007)
ADRBK2 (human) = ADRBK2 (human) (UniProt P35626)
NEK7 (human) = NEK7 (human) (UniProt Q8TDX7)
PRKG2 (human) = PRKG2 (human) (UniProt Q13237)
CDK6 CCND1 (human) = CDK6 CCND1 (human) (UniProt Q00534+P24385)
MAPKAPK3 (human) = MAPKAPK3 (human) (UniProt Q16644)
PTK6 (human) = PTK6 (human) (UniProt Q13882)
MAP4K2 (human) = MAP4K2 (human) (UniProt Q12851)
MAP4K2 (human), sequence (Q12851 whole entry, looked up): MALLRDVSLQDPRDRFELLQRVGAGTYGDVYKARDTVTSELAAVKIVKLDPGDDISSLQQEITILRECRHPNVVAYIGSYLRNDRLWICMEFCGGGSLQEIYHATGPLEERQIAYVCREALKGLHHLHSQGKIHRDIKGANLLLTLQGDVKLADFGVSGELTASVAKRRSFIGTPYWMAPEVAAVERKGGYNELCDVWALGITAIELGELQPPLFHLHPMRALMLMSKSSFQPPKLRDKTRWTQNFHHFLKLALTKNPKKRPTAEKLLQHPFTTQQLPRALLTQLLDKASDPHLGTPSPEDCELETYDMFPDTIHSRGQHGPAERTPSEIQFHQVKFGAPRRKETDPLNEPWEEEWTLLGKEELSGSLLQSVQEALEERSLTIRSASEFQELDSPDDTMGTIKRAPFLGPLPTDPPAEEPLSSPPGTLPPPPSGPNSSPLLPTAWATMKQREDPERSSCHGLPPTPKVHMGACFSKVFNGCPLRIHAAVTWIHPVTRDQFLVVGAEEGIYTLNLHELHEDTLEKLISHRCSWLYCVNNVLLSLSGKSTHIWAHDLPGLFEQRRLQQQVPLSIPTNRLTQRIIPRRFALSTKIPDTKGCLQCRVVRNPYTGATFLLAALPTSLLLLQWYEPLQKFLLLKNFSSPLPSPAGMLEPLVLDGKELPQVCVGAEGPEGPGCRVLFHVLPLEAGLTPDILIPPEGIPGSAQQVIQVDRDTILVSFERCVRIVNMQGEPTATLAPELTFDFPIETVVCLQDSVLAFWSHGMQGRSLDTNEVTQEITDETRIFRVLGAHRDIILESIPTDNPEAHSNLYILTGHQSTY

TTK (human), sequence (P33981 whole entry, looked up): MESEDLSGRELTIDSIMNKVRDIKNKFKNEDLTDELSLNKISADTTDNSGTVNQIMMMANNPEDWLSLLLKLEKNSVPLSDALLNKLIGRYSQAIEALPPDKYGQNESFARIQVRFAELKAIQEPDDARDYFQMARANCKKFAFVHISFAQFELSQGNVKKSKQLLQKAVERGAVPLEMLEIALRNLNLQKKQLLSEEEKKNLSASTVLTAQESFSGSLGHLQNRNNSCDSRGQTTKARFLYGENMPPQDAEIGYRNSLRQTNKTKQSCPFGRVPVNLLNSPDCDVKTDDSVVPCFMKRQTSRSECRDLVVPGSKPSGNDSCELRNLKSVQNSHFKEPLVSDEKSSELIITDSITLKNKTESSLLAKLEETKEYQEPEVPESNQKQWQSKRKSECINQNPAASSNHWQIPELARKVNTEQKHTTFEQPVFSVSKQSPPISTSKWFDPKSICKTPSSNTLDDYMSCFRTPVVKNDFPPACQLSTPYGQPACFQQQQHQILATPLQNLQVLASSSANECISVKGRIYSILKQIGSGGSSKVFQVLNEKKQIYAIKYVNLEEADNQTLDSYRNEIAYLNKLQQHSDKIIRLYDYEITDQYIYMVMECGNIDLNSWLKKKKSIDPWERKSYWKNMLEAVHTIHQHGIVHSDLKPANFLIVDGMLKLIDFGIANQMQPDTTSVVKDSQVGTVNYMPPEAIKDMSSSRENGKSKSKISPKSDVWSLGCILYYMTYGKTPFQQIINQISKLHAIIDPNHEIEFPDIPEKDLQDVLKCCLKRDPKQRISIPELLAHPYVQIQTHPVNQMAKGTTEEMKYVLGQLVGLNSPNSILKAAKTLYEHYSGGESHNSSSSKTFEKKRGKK
MAPK10 (human), sequence (P53779 whole entry, looked up): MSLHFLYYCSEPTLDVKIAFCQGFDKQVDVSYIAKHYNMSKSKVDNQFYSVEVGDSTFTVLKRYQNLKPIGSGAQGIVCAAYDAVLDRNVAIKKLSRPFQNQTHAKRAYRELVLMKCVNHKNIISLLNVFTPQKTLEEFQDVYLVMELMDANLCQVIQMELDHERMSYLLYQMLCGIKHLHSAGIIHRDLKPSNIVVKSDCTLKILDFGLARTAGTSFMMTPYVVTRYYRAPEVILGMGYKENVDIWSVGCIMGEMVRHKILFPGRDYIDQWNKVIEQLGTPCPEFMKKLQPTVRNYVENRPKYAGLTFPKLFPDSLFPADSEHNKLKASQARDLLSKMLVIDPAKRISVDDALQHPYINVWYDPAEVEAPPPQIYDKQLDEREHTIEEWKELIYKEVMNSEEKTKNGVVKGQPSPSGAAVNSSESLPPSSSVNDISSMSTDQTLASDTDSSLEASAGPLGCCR
ERBB4 (human), sequence (Q15303 whole entry, looked up): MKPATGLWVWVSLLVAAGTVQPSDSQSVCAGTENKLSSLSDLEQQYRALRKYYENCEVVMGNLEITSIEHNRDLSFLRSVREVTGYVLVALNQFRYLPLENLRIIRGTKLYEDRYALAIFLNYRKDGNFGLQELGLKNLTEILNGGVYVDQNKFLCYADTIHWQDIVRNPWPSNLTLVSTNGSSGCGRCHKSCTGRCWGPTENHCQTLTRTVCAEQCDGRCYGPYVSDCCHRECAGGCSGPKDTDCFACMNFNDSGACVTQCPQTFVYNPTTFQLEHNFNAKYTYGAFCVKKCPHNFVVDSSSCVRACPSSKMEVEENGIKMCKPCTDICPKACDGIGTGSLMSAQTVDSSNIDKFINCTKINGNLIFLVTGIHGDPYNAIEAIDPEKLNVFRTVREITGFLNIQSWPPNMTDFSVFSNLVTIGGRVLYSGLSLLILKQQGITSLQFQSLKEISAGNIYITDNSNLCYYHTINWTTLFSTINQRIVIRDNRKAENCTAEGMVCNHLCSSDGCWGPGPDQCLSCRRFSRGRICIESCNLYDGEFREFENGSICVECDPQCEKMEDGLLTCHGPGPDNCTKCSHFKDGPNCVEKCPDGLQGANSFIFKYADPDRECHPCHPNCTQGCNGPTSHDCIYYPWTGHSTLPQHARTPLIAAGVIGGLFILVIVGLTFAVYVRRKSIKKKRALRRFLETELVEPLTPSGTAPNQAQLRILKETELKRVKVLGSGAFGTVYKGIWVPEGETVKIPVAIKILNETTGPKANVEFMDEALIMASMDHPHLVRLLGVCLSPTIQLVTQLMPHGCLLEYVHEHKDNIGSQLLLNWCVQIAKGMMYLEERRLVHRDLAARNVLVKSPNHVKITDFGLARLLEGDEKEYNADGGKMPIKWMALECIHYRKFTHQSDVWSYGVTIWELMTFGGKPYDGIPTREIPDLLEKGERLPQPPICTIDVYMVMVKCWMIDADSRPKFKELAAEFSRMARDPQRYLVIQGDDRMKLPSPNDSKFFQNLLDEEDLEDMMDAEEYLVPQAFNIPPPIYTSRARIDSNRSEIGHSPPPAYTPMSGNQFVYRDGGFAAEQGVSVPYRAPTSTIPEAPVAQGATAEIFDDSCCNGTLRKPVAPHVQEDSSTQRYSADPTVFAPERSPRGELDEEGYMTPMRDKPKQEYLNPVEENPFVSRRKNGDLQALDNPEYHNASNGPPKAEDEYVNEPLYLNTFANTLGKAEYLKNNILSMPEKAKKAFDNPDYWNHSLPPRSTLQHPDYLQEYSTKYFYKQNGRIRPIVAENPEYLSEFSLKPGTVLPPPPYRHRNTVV
PRKCQ (human), Q04759 [P330L], sequence (Q04759 whole entry P330L, looked up): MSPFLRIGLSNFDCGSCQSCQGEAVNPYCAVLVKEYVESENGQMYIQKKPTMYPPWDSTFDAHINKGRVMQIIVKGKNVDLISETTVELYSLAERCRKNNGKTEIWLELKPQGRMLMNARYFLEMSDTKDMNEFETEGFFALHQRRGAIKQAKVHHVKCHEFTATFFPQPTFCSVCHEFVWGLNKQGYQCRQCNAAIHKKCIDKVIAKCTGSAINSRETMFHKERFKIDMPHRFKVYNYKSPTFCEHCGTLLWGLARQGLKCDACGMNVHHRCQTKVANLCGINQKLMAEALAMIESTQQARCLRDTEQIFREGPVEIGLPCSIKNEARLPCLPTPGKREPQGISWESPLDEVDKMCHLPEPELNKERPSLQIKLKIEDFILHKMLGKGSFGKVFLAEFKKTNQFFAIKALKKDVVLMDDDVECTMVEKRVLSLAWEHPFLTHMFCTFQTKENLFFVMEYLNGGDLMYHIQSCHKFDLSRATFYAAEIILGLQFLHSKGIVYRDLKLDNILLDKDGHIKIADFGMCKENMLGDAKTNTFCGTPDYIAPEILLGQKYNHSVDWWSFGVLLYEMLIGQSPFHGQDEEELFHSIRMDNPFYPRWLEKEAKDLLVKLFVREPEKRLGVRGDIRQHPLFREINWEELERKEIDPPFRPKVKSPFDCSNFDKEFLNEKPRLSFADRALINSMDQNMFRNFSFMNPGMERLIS
GSK3B (human), sequence (P49841 whole entry, looked up): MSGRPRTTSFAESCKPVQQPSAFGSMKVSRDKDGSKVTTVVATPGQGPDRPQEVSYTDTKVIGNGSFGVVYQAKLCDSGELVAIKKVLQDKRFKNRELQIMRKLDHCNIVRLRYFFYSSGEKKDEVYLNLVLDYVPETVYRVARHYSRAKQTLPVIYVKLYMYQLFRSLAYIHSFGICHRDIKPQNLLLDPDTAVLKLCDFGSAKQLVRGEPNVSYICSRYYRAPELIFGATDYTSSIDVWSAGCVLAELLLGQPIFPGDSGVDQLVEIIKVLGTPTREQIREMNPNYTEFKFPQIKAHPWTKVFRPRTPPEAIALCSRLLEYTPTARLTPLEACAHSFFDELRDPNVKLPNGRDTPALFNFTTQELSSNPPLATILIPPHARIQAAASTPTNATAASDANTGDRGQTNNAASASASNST
PHKG2 (human), sequence (P15735 whole entry, looked up): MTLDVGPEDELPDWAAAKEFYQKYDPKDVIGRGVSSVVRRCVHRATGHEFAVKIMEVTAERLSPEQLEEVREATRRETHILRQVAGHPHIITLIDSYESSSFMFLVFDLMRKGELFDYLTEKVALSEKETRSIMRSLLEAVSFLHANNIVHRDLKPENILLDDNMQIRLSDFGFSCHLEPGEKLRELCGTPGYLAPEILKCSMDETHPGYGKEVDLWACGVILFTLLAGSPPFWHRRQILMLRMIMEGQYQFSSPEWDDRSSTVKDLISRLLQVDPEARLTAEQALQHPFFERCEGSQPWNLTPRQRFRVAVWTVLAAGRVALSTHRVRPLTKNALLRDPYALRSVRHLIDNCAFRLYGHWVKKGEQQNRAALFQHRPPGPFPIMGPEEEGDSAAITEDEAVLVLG

**Q.** How did the residual activity (PLK1 (human)) turn out when `Cc1cccc(-c2nc(C(C)(C)C)[nH]c2-c2ccc3c(c2)OCO3)n1` was run?
**A.** The residual activity was 105%.

**Q.** And the residual activity (DYRK1B (human))?
**A.** Its residual activity is 99.6%.

**Q.** And the residual activity (CAMK2G (human))?
**A.** Its residual activity is 85.5%.

**Q.** What about the residual activity (PRKCB1 (human)) of the same molecule?
**A.** Its residual activity is 82.5%.

**Q.** What about the residual activity (SRMS (human)) of the same molecule?
**A.** The residual activity was 102%.

**Q.** And the residual activity (CHEK2 (human))?
**A.** The residual activity was 96.4%.

**Q.** What about the residual activity (ADRBK1 (human)) of the same molecule?
**A.** Its residual activity is 105%.

**Q.** And the residual activity (FGFR4 (human))?
**A.** The residual activity was 73.8%.

**Q.** What about the residual activity (CSF1R (human)) of the same molecule?
**A.** The residual activity was 102%.

**Q.** What about the residual activity (CDK3 CCNE1 (human)) of the same molecule?
**A.** The residual activity was 97.6%.

**Q.** What about the residual activity (ERBB4 (human)) of the same molecule?
**A.** Its residual activity is 83.1%.

**Q.** What about the residual activity (NEK3 (human)) of the same molecule?
**A.** The residual activity was 85.6%.

**Q.** What about the residual activity (NUAK1 (human)) of the same molecule?
**A.** The residual activity was 97.3%.

**Q.** And the residual activity (NEK4 (human))?
**A.** Its residual activity is 94.9%.

**Q.** What about the residual activity (DYRK4 (human)) of the same molecule?
**A.** Its residual activity is 89.7%.

**Q.** What about the residual activity (MAPK10 (human)) of the same molecule?
**A.** The residual activity was 96%.

**Q.** And the residual activity (TBK1 (human))?
**A.** Its residual activity is 91.9%.

**Q.** What about the residual activity (EPHA8 (human)) of the same molecule?
**A.** The residual activity was 89.9%.

**Q.** What about the residual activity [1] of the same molecule?
**A.** The residual activity was 107%.

**Q.** What about the residual activity (PDGFRA (human)) of the same molecule?
**A.** The residual activity was 94.1%.

**Q.** What about the residual activity (CDK9 CCNK (human)) of the same molecule?
**A.** Its residual activity is 106%.

**Q.** What about the residual activity (CDK2 CCNE1 (human)) of the same molecule?
**A.** The residual activity was 95.6%.

**Q.** And the residual activity (MAP3K9 (human))?
**A.** The residual activity was 94%.

**Q.** What about the residual activity (TTK (human)) of the same molecule?
**A.** Its residual activity is 89%.

**Q.** And the residual activity (GSK3B (human))?
**A.** The residual activity was 96.8%.

**Q.** What about the residual activity (GRK7 (human)) of the same molecule?
**A.** Its residual activity is 103%.

**Q.** And the residual activity (TGFBR1 (human))?
**A.** The residual activity was 35.8%.

**Q.** And the residual activity (NEK6 (human))?
**A.** Its residual activity is 109%.

**Q.** What about the residual activity (MAP3K5 (human)) of the same molecule?
**A.** The residual activity was 103%.

**Q.** And the residual activity (PRKCZ (human))?
**A.** The residual activity was 87.9%.

**Q.** And the residual activity (ACVR1 (human))?
**A.** Its residual activity is 96.4%.

**Q.** And the residual activity (PRKCA (human))?
**A.** The residual activity was 99.6%.

**Q.** What about the residual activity (PHKG2 (human)) of the same molecule?
**A.** The residual activity was 107%.

**Q.** And the residual activity (WNK3 (human))?
**A.** The residual activity was 94.1%.

**Q.** And the residual activity (LRRK2 (human))?
**A.** Its residual activity is 103%.

**Q.** And the residual activity (ADRBK2 (human))?
**A.** Its residual activity is 96.3%.

**Q.** What about the residual activity (NEK7 (human)) of the same molecule?
**A.** The residual activity was 106%.

**Q.** What about the residual activity (PRKG2 (human)) of the same molecule?
**A.** Its residual activity is 95.9%.

**Q.** What about the residual activity (CDK6 CCND1 (human)) of the same molecule?
**A.** The residual activity was 95.2%.

**Q.** What about the residual activity (MAPKAPK3 (human)) of the same molecule?
**A.** Its residual activity is 94.1%.

**Q.** And the residual activity (PTK6 (human))?
**A.** Its residual activity is 87.7%.

**Q.** What about the residual activity (MAP4K2 (human)) of the same molecule?
**A.** The residual activity was 102%.

**Q.** Which residual activity (PLK1 (human)) does the source give for `COc1cc2ncnc(Nc3ccc(OCc4ccccc4)cc3)c2cc1OC` here?
**A.** Its residual activity is 101%.

**Q.** What about the residual activity (DYRK1B (human)) of the same molecule?
**A.** Its residual activity is 104%.

**Q.** What about the residual activity (CAMK2G (human)) of the same molecule?
**A.** Its residual activity is 94.2%.

**Q.** And the residual activity (PRKCB1 (human))?
**A.** The residual activity was 97.4%.

**Q.** And the residual activity (SRMS (human))?
**A.** The residual activity was 104%.

**Q.** What about the residual activity (CHEK2 (human)) of the same molecule?
**A.** The residual activity was 14.2%.

**Q.** And the residual activity (ADRBK1 (human))?
**A.** Its residual activity is 101%.

**Q.** And the residual activity (FGFR4 (human))?
**A.** The residual activity was 106%.

**Q.** What about the residual activity (CSF1R (human)) of the same molecule?
**A.** Its residual activity is 97.8%.

**Q.** What about the residual activity (CDK3 CCNE1 (human)) of the same molecule?
**A.** Its residual activity is 96.3%.

**Q.** And the residual activity (ERBB4 (human))?
**A.** The residual activity was 9.19%.

**Q.** And the residual activity (NEK3 (human))?
**A.** Its residual activity is 99.1%.

**Q.** What about the residual activity (NUAK1 (human)) of the same molecule?
**A.** The residual activity was 94.8%.

**Q.** And the residual activity (NEK4 (human))?
**A.** Its residual activity is 86.9%.

**Q.** What about the residual activity (DYRK4 (human)) of the same molecule?
**A.** The residual activity was 97.6%.

**Q.** What about the residual activity (MAPK10 (human)) of the same molecule?
**A.** The residual activity was 84.5%.

**Q.** What about the residual activity (TBK1 (human)) of the same molecule?
**A.** Its residual activity is 101%.

**Q.** And the residual activity (EPHA8 (human))?
**A.** Its residual activity is 102%.

**Q.** What about the residual activity [1] of the same molecule?
**A.** The residual activity was 102%.

**Q.** And the residual activity (PDGFRA (human))?
**A.** Its residual activity is 91.3%.

**Q.** What about the residual activity (CDK9 CCNK (human)) of the same molecule?
**A.** Its residual activity is 103%.

**Q.** And the residual activity (CDK2 CCNE1 (human))?
**A.** Its residual activity is 96.7%.

**Q.** What about the residual activity (MAP3K9 (human)) of the same molecule?
**A.** Its residual activity is 96.5%.

**Q.** And the residual activity (TTK (human))?
**A.** Its residual activity is 96.8%.

**Q.** What about the residual activity (GSK3B (human)) of the same molecule?
**A.** Its residual activity is 119%.

**Q.** What about the residual activity (GRK7 (human)) of the same molecule?
**A.** The residual activity was 101%.

**Q.** What about the residual activity (TGFBR1 (human)) of the same molecule?
**A.** Its residual activity is 95.7%.

**Q.** What about the residual activity (NEK6 (human)) of the same molecule?
**A.** The residual activity was 97.6%.

**Q.** And the residual activity (MAP3K5 (human))?
**A.** Its residual activity is 97.8%.

**Q.** What about the residual activity (PRKCZ (human)) of the same molecule?
**A.** Its residual activity is 113%.

**Q.** And the residual activity (ACVR1 (human))?
**A.** The residual activity was 101%.

**Q.** And the residual activity (PRKCA (human))?
**A.** Its residual activity is 93.9%.

**Q.** What about the residual activity (PHKG2 (human)) of the same molecule?
**A.** The residual activity was 97.4%.

**Q.** What about the residual activity (WNK3 (human)) of the same molecule?
**A.** Its residual activity is 90.8%.

**Q.** What about the residual activity (LRRK2 (human)) of the same molecule?
**A.** The residual activity was 92.2%.

**Q.** What about the residual activity (ADRBK2 (human)) of the same molecule?
**A.** Its residual activity is 99.6%.

**Q.** And the residual activity (NEK7 (human))?
**A.** The residual activity was 101%.

**Q.** What about the residual activity (PRKG2 (human)) of the same molecule?
**A.** The residual activity was 104%.

**Q.** What about the residual activity (CDK6 CCND1 (human)) of the same molecule?
**A.** Its residual activity is 96.7%.

**Q.** And the residual activity (MAPKAPK3 (human))?
**A.** Its residual activity is 102%.

**Q.** And the residual activity (PTK6 (human))?
**A.** Its residual activity is 37.9%.

**Q.** What about the residual activity (MAP4K2 (human)) of the same molecule?
**A.** Its residual activity is 114%.
